pEC50: −log10 of the molar value.
Legend:
JAK3 = JAK3 (Homo sapiens (Human), UniProt P52333); assay: JAK kinase assay (HTRF), JAK3; type: biochemical; settings: catalytic domain, His-tag, ATP at Km (2 μM)
Method: (§1) Human baculovirus-expressed JAK1, 2, 3 and TYK2 were purchased from Carna Biosciences, Inc. All four purified enzymes contain only the catalytic domain. JAK1 (aa 850-1154) and TYK2 (aa 871-1187) are expressed with an N-terminally fused GST-tag, and JAK2 and JAK3 with an N-terminally fused His-tag.
(§2) Inhibition of phosphorylation of a synthetic peptide was measured in an HTRF-based assay using the TK substrate-Biotin from the Cisbio HTRFKinEASE TK kit. First, 2 μl of TK solution (TK substrate-biotin in kinase buffer [1× enzymatic buffer from HTRFKinEASE TK kit, 1 mM DTT]) is added to a plate containing 1 μl prediluted compound (final assay concentration DMSO: 0.75%). Then, 5 μl kinase-ATP mix (prepared in kinase buffer) is added to the wells and the plates are incubated at RT for 20-30 min. For all four kinases a concentration of ATP that corresponded to the Km for ATP was used. The final concentrations of buffers, substrate, kinase and ATP were: JAK1: 50 mM Hepes buffer pH 7.0, 0.01% BSA, 10 mM MgCl2, 1 mM DTT, 7 μM ATP, 50 nM SEB, 1 μM TK Substrate-Biotin and 5 ng JAK1; JAK2: 50 mM Hepes buffer pH 7.0, 0.01% BSA, 5 mM MgCl2, 1 mM DTT, 4 μM ATP, 1 μM TK Substrate-Biotin and 0.1 ng JAK2; JAK3: 50 mM Hepes buffer pH 7.0, 0.01% BSA, 5 mM MgCl2, 1 mM DTT, 2 μM ATP, 1 μM TK Substrate-Biotin and 0.3 ng JAK3; TYK2: 50 mM Hepes buffer pH 7.0, 0.01% BSA, 5 mM MgCl2, 1 mM DTT, 13 μM ATP, 50 nM SEB, 1 μM TK Substrate-Biotin and 0.8 ng TYK2. Thereafter, the kinase reaction is stopped by adding 4 μl detection mix (final concentrations: 50 mM Hepes buffer pH 7.0, 0.01% BSA, 0.8 M KF, 20 mM EDTA, 42 nM Streptavidin-XL665 and 1:400 STK Ab Cryptate) and the plates are incubated overnight in the dark. The HTRF signal is read using an Envision plate reader.

JAK1 = JAK1 (Homo sapiens (Human), UniProt P23458); assay: JAK kinase assay (HTRF), JAK1; type: biochemical; settings: catalytic domain (aa 850-1154), GST-tag, ATP at Km (7 μM)
Method: as §1, §2

[1] = in vitro metabolic stability in human liver microsomes; type: in vitro ADME; settings: compound 0.5 μM, human liver microsomes 0.5 mg/mL, NADPH, 40 min, 37° C.; for CLint scaled at 0.5 μM: human, liver microsomes, read-out: Human liver microsome Clapp (apparent intrinsic clearance)
Method: To assess the in vitro metabolic stability, the compounds (0.5 μM) were incubated in duplicates with human liver microsomes (0.5 mg/mL) in phosphate buffer and NADPH, in 96-well plates for 40 min (37° C.), using a liquid handling robot (Hamilton Microlab Star). Sample aliquots were taken at 0, 5, 10, 20 and 40 min, and dispensed into cold acetonitrile, in order to stop the reactions. The plates were centrifuged for 30 minutes before the samples were analyzed using liquid chromatography coupled to a time-of-flight mass spectrometer (AB Sciex API5600). The compound depletion over time was used to estimate the elimination rate constant, from which the apparent intrinsic clearance, Clapp, was calculated and the values are listed in table 2.

JAK2 = JAK2 (Homo sapiens (Human), UniProt O60674); assay: JAK kinase assay (HTRF), JAK2; type: biochemical; settings: catalytic domain, His-tag, ATP at Km (4 μM)
Method: as §1, §2

TYK2 = TYK2 (Homo sapiens (Human), UniProt P29597); assay: JAK kinase assay (HTRF), TYK2; type: biochemical; settings: catalytic domain (aa 871-1187), GST-tag, ATP at Km (13 μM)
Method: as §1, §2

Chain of JAK1 (P23458 850-1154): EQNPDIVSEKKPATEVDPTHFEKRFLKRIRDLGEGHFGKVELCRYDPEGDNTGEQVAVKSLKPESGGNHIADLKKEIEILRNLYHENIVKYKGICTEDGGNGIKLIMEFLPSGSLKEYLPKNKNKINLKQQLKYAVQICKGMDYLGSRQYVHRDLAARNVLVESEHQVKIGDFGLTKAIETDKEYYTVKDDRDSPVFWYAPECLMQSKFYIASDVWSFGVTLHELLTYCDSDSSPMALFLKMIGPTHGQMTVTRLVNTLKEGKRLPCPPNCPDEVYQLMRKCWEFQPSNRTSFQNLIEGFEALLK
Chain of JAK2 (O60674 849-1124): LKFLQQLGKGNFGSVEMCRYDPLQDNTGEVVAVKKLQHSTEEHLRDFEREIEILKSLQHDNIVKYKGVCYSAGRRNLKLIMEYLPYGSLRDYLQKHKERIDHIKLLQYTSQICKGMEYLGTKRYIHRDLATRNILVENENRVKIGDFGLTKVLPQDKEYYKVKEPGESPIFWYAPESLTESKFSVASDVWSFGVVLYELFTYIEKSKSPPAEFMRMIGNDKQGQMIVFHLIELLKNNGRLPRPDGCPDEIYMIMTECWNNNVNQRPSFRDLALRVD
Chain of TYK2 (P29597 871-1187): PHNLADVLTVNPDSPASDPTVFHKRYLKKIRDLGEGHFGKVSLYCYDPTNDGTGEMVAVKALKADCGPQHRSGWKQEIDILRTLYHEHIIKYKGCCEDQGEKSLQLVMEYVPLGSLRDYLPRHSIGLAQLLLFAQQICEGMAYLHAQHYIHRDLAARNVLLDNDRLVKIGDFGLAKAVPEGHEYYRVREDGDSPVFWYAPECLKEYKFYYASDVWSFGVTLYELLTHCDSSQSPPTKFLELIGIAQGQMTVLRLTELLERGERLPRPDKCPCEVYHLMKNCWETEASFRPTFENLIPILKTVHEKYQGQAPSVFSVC
Chain of JAK3 (P52333 822-1111): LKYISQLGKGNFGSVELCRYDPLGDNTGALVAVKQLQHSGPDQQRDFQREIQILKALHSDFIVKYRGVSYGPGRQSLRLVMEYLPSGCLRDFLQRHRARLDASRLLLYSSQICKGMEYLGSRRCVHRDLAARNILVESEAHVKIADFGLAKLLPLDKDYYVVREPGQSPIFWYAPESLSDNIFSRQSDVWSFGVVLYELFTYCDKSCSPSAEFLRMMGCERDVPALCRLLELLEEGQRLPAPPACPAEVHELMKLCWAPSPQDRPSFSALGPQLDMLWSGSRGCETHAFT

Row | SMILES | pEC50 (JAK3) | pEC50 (JAK1) | CLint scaled at 0.5 μM [1] [mL/min/kg] | pEC50 (JAK2) | pEC50 (TYK2) | Human liver microsome Clapp (apparent intrinsic clearance) [1] [mL/min/kg]
1 | Cc1cc(N2CC[C@H]3CCN(c4ncnc5[nH]ccc45)C[C@@]3(C)C2)ncc1C#N (racemic) [Example 8, 6-[(4aS*,8aR*)-8a-methyl-7-(7H-pyrrolo[2,3-d]pyrimidin-4-yl)-3,4,4a,5,6,8-hexahydro-1H-2,7-naphthyridin-2-yl]-4-methyl-pyridine-3-carbonitrile] | 7.68 | 7.07 | 200 | 6.57 | 5.68 | –
2 | Cc1cc(N2C[C@H]3CCN(c4ncnc5[nH]ccc45)C[C@@]3(C)C2)ncc1C#N (racemic) [Example 40, 6-[(3aR*,7aS*)-3a-methyl-5-(7H-pyrrolo[2,3-d]pyrimidin-4-yl)-1,3,4,6,7,7a-hexahydropyrrolo[3,4-c]pyridin-2-yl]-4-methyl-pyridine-3-carbonitrile] | 7.34 | 8.52 | 200 | 7.55 | 6.14 | –
3 | C[C@]12CN(c3ccc(C#N)nn3)C[C@H]1CCN(c1ncnc3[nH]ccc13)C2 (racemic) [Example 42] | 7.11 | 8.00 | 53 | 7.28 | 6.24 | –
4 | C[C@]12CN(c3cnc(C#N)cn3)C[C@H]1CCN(c1ncnc3[nH]ccc13)C2 (racemic) [Example 43] | 7.43 | 8.52 | 55 | 7.66 | 6.63 | –
5 | Cc1nc(N2C[C@H]3CCN(c4ncnc5[nH]ccc45)C[C@@]3(C)C2)ccc1C#N (racemic) [Example 45, 6-[(3aR*,7aS*)-3a-methyl-5-(7H-pyrrolo[2,3-d]pyrimidin-4-yl)-1,3,4,6,7,7a-hexahydropyrrolo[3,4-c]pyridin-2-yl]-2-methyl-pyridine-3-carbonitrile] | 6.92 | 7.52 | – | 6.99 | 5.92 | –
6 | C[C@]12CN(C(=O)C3(C#N)CCCC3)C[C@H]1CCN(c1ncnc3[nH]ccc13)C2 (racemic) [Example 46, 1-[(3aS*,7aS*)-3a-methyl-5-(7H-pyrrolo[2,3-d]pyrimidin-4-yl)-1,3,4,6,7,7a-hexahydropyrrolo[3,4-c]pyridine-2-carbonyl]cyclopentanecarbonitrile] | 6.15 | 7.01 | – | 6.20 | 5.82 | –
7 | C[C@]12CN(c3ccc(C#N)cn3)C[C@H]1CCN(c1ncnc3[nH]ccc13)C2 (racemic) [Example 47] | 7.59 | 8.30 | 133 | 7.52 | 6.80 | –
8 | C[C@]12CN(C#N)CC[C@H]1CCN(c1ncnc3[nH]ccc13)C2 (relative stereo) [Example 2, (4aR*,8aS*)-8a-methyl-7-(7H-pyrrolo[2,3-d]pyrimidin-4-yl)-3,4,4a,5,6,8-hexahydro-1H-2,7-naphthyridine-2-carbonitrile] | 7.60 | 9.00 | – | 8.22 | 7.57 | 62
9 | CC[C@]12CN(C(C)=O)CC[C@H]1CCN(c1ncnc3[nH]ccc13)C2 (relative stereo) [Example 15, 1-[(4aR*,8aS*)-8a-ethyl-7-(7H-pyrrolo[2,3-d]pyrimidin-4-yl)-3,4,4a,5,6,8-hexahydro-1H-2,7-naphthyridin-2-yl]ethanone] | 7.16 | 6.92 | – | 6.34 | 5.98 | –
10 | CC[C@]12CN(C=O)CC[C@H]1CCN(c1ncnc3[nH]ccc13)C2 (relative stereo) [Example 16, (4aR*,8aS*)-8a-ethyl-7-(7H-pyrrolo[2,3-d]pyrimidin-4-yl)-3,4,4a,5,6,8-hexahydro-1H-2,7-naphthyridine-2-carbaldehyde] | 7.37 | 7.89 | 116 | 7.39 | 6.75 | –
11 | CC[C@@]12CN(c3ncnc4[nH]ccc34)CC[C@@H]1CCN(S(N)(=O)=O)C2 (relative stereo) [Example 17, (4aR*,8aS*)-8a-ethyl-7-(7H-pyrrolo[2,3-d]pyrimidin-4-yl)-3,4,4a,5,6,8-hexahydro-1H-2,7-naphthyridine-2-sulfonamide] | 8.52 | 8.70 | 197 | 8.15 | 7.35 | –
12 | CC[C@]12CN(c3nnc(Br)s3)CC[C@H]1CCN(c1ncnc3[nH]ccc13)C2 (relative stereo) [Example 20, 2-[(4aR*,8aS*)-8a-ethyl-7-(7H-pyrrolo[2,3-d]pyrimidin-4-yl)-3,4,4a,5,6,8-hexahydro-1H-2,7-naphthyridin-2-yl]-5-bromo-1,3,4-thiadiazole] | 8.30 | 8.40 | 200 | 7.77 | 6.57 | –
13 | CC[C@]12CN(C#N)CC[C@H]1CCN(c1ncnc3[nH]ccc13)C2 (relative stereo) [Example 23, (4aR*,8aS*)-8a-ethyl-7-(7H-pyrrolo[2,3-d]pyrimidin-4-yl)-3,4,4a,5,6,8-hexahydro-1H-2,7-naphthyridine-2-carbonitrile] | 7.85 | 8.70 | – | 8.40 | 7.96 | 200
14 | CC[C@]12CN(c3nc(C#N)cs3)CC[C@H]1CCN(c1ncnc3[nH]ccc13)C2 (relative stereo) [Example 25, 2-[(4aR*,8aS*)-8a-ethyl-7-(7H-pyrrolo[2,3-d]pyrimidin-4-yl)-3,4,4a,5,6,8-hexahydro-1H-2,7-naphthyridin-2-yl]thiazole-4-carbonitrile] | 7.54 | 7.34 | – | 6.86 | 5.95 | –
15 | CC12CN(c3ccc(C#N)cn3)C[C@H]1CCN(c1ncnc3[nH]ccc13)C2 (stereo in doubt) [Example 33, 6-[(3aS,7aS)-3a-methyl-5-(7H-pyrrolo[2,3-d]pyrimidin-4-yl)-1,3,4,6,7,7a-hexahydropyrrolo[3,4-c]pyridin-2-yl]pyridine-3-carbonitrile] | 8.10 | 9.00 | 166 | 8.30 | 7.23 | –
16 | CC[C@]12CN(c3ncnc4[nH]ccc34)CC[C@H]1CCN(S(N)(=O)=O)C2 [Example 19, (4aS,8aR)-8a-ethyl-7-(7H-pyrrolo[2,3-d]pyrimidin-4-yl)-3,4,4a,5,6,8-hexahydro-1H-2,7-naphthyridine-2-sulfonamide] | 6.82 | 6.84 | – | 6.68 | 5.73 | –
17 | CC[C@@]12CN(C#N)CC[C@@H]1CCN(c1ncnc3[nH]ccc13)C2 [Example 21, (4aS,8aR)-8a-ethyl-7-(7H-pyrrolo[2,3-d]pyrimidin-4-yl)-3,4,4a,5,6,8-hexahydro-1H-2,7-naphthyridine-2-carbonitrile] | 6.24 | 7.10 | – | 6.73 | 6.01 | –
18 | C[C@@]12CN(C#N)C[C@@H]1CCN(c1ncnc3[nH]ccc13)C2 [Example 28, (3aR,7aR)-3a-methyl-5-(7H-pyrrolo[2,3-d]pyrimidin-4-yl)-1,3,4,6,7,7a-hexahydropyrrolo[3,4-c]pyridine-2-carbonitrile] | 5.66 | 6.62 | – | 6.08 | 5.61 | –
19 | CCC12CNCCC1CCN(c1ncnc3[nH]ccc13)C2 (stereo not drawn) [Intermediate 10, 8a-ethyl-7-(7H-pyrrolo[2,3-d]pyrimidin-4-yl)-1,2,3,4,4a,5,6,8-octahydro-2,7-naphthyridine] | 6.80 | 7.80 | – | 7.60 | 5.70 | –

— patent US10851116B2, “Bicyclic amines as novel JAK kinase inhibitors” (LEO Pharma A/S, priority 2017, dated 2020)
